Measurements taken from the supplement of paper PMC4954754.
± gives the uncertainty stated by the source.

Tests used:
Conditions in all cases: 18 h
[1] = system: HEK293T-Rex XBP1-RLuc; assay: EC50 for XBP1-RLuc reporter activation
Description: (§1)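 Dose-response of hit compounds in HEK293T-Rex cells stably expressing ERSE-FLuc or XBP1-RLuc reporters, 18 hr treatment, 1536-well; luminescence normalised to 500 nM thapsigargin (100%) and DMSO (0%), fitted to give EC50 (M) and maximal activation; '>' marks EC50 above the top tested dose (~17 µM).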

[2] = system: HEK293T-Rex ERSE-FLuc; assay: maximal ERSE-FLuc activation from dose-response fit, relative to thapsigargin (% of thapsigargin); higher = stronger activation
Description: as §1

[3] = system: HEK293T-Rex ERSE-FLuc; assay: EC50 for ERSE-FLuc reporter activation
Description: as §1

[4] = system: HEK293T-Rex XBP1-RLuc; assay: maximal XBP1-RLuc activation from dose-response fit, relative to thapsigargin (% of thapsigargin); higher = stronger activation
Description: as §1

Row | SMILES | EC50 for XBP1-RLuc reporter activation [1] [µM] | maximal ERSE-FLuc activation [2] | EC50 for ERSE-FLuc reporter activation [3] [µM] | maximal XBP1-RLuc activation [4]
1 | Cc1ccc(/C=N/NC(=O)c2cccc(F)c2)cc1 | > 16.9 | 23.1 ± 1.4 | > 16.9 | 1.93 ± 2
2 | Cc1ccc(NC(=O)/C=C/c2ccco2)nc1 | > 16.9 | 17.5 ± 3.4 | > 16.9 | 7.43 ± 1.4
3 | Cc1cc(C)nc(/N=C(\N)Nc2ccc(OCc3ccccc3)cc2)n1 | 0.788 | 46.9 ± 15 | > 14.6 | 94.2 ± 4.2
4 | COc1ccccc1OCC(=O)Nc1cc(C)ccc1O | > 16.9 | 45.8 ± 4.2 | > 16.9 | 22.9 ± 1.1
5 | Oc1ccc(/C=N/Nc2cccc(Cl)n2)c(O)c1 | > 16.9 | 24.4 ± 4.8 | > 16.9 | 33.6 ± 1.8
6 | C/C(=N\NC(=O)c1n[nH]c2c1CCCC2)c1ccc2ccccc2c1 | > 16.9 | 23.2 ± 3.1 | > 16.9 | 8.52 ± 1
7 | C=CCNC(=O)c1cc(-c2ccccc2)on1 | > 16.9 | 99.6 ± 17 | 7.45 | 10.7 ± 4.1
8 | CN(C)c1ccc(/C=C/C(=O)NC(=O)c2ccccc2OC(=O)c2ccccc2)cc1 | > 12.9 | 25 ± 1.2 | > 12.9 | 11.5 ± 1.4
9 | COc1ccc(C2=Nn3c(nnc3-c3ccc(OC)cc3)SC2)cc1 | > 16.9 | 17 ± 5.2 | > 16.9 | 16 ± 2.4
10 | CCOc1cccc(/C=C2\NC(=S)N(C)C2=O)c1O | > 16.9 | 6.21 ± 2 | > 16.9 | 0.0882 ± 1.7
11 | Cc1ccc(O)c(NC(=O)CSc2n[nH]c(C)c2[N+](=O)[O-])c1 | > 16.9 | 98.8 ± 16 | 5.79 | 37.4 ± 7.3
12 | O=c1/c(=C/c2ccc(O)c(O)c2)sc2nc3ccccc3n12 | > 16.9 | 59.2 ± 3.9 | 6.02 | 43.9 ± 5.4
13 | O=c1cc(-c2ccc(O)c(O)c2)oc2ccccc12 | > 17.1 | 32.7 ± 5 | > 17.1 | 43.9 ± 0.95
14 | O=C1c2cc(O)ccc2-c2ccc(O)cc21 | 8.87 | 65.1 ± 18 | 8.44 | 73.2 ± 6.5
15 | N#C/C(=C\c1ccc(O)c(O)c1)C(=O)Nc1ccccc1 | > 33.8 | 52.2 ± 13 | 24.6 | 21.5 ± 0.57
16 | CCCNC(=O)c1cc(-c2ccc(F)cc2)on1 | > 16.9 | 65.8 ± 6.4 | 12 | 11.7 ± 3.2
17 | CCOc1ccc2nc(NC(=O)c3ccn(C)n3)sc2c1 | > 14.4 | 10.9 ± 2.4 | > 14.4 | 4.53 ± 2.8
18 | COC(=O)c1ccc2c(COC(C)=O)c(OC(C)=O)ccc2c1COC(C)=O | > 16.9 | 70.9 ± 16 | 14.7 | 19.2 ± 4.8
19 | Nc1ccccc1NC(=O)c1ccc(C(F)(F)F)cc1 | > 19.9 | 73.1 ± 8.1 | 9.12 | 37.7 ± 3.5
20 | CC(=O)Oc1ccc2cc(NC(=O)c3ccc(C)cc3)c(=O)oc2c1 | > 15.1 | 25.8 ± 1.6 | > 15.1 | 14.6 ± 0.94
21 | Cc1cc(C)c(OCC(=O)N/N=C/c2ccc(O)c(O)c2)c(Br)c1 | > 16.9 | 49.6 ± 5.9 | > 16.9 | 41.1 ± 11
22 | Cc1cc2nc(/C(C#N)=C/c3ccco3)[nH]c2cc1C | > 16.9 | 28 ± 8.7 | > 16.9 | 2.69 ± 0.74
